In data set [1] the test system is Candida albicans. Description: Antifungal activity against FLC-sensitive Candida albicans SC5314 measured after 24 hrs by microdilution method. In kind it is functional. On the technique in general: In broth dilution the organism is exposed to a series of concentrations in liquid medium.
In data set [2] the test system is Candida albicans. Description: Synergistic antifungal activity against Clinical FLC-resistant Candida albicans 23 measured after 24 hrs in presence of fluconazole by microdilution method. It counts as functional.
Data set [3] has as its system Candida albicans. Description: Synergistic antifungal activity against FLC-sensitive Candida albicans SC5314 assessed as fractional inhibitory concentration index measured after 24 hrs in presence of fluconazole by microdilution method. In kind it is functional.
Data set [4] concerns Candida albicans. Description: Antifungal activity against clinical FLC-resistant Candida albicans 808 measured after 24 hrs by microdilution method. It counts as functional.
In data set [5] the test system is Candida albicans. The data set is described as follows: Antifungal activity against clinical FLC-resistant Candida albicans 799 measured after 24 hrs by microdilution method. In kind it is functional.
In data set [6] the test system is Candida albicans. Description: Antifungal activity against clinical FLC-resistant Candida albicans 4574 measured after 24 hrs by microdilution method. It counts as functional.
Data set [7] relates to Candida albicans. The data set is described as follows: Antifungal activity against FLC-resistant Candida albicans ATCC 10231 measured after 24 hrs by microdilution method. It counts as functional.
Data set [8] relates to Candida albicans. The data set is described as follows: Antifungal activity against FLC-resistant Candida albicans ATCC 14053 measured after 24 hrs by microdilution method. In kind it is functional.
The subject of data set [9] is Candida albicans. The data set is described as follows: Synergistic antifungal activity against clinical FLC-resistant Candida albicans 3816 measured after 24 hrs by microdilution method. In kind it is functional.
In data set [10] the test system is Candida albicans. The data set is described as follows: Synergistic antifungal activity against clinical FLC-resistant Candida albicans 4574 measured after 24 hrs by microdilution method. It counts as functional.
Data set [11] relates to Candida albicans. Description: Synergistic antifungal activity against clinical FLC-resistant Candida albicans 550 assessed as fractional inhibitory concentration index measured after 24 hrs by microdilution method. In kind it is functional.
Data set [12] relates to Candida albicans. The data set is described as follows: Synergistic antifungal activity against FLC-resistant Candida albicans ATCC 14053 assessed as inhibition of hyphal formation by measuring down regulation of RAS1 gene expression at 1 ug/ml measured after 16 to 18 hrs in presence of fluconazole by qRT-PCR analysis. In kind it is functional, organism-based. Particulars: dose 1.0 µg/ml, time 16-18 hrs. In general terms: In qPCR the cycle at which signal appears reflects the starting amount.

Data set [13] relates to Candida albicans. The data set is described as follows: Synergistic antifungal activity against FLC-resistant Candida albicans ATCC 14053 assessed as inhibition of hyphal formation by measuring down regulation of ECE1 gene expression at 1 ug/ml measured after 16 to 18 hrs in presence of fluconazole by qRT-PCR analysis. In kind it is functional, organism-based. Particulars: dose 1.0 µg/ml, time 16-18 hrs.

The subject of data set [14] is Candida albicans. Description: Synergistic antifungal activity against FLC-resistant Candida albicans ATCC 14053 assessed as inhibition of hyphal formation by measuring down regulation of HWP1 gene expression at 1 ug/ml measured after 16 to 18 hrs in presence of fluconazole by qRT-PCR analysis. Conditions: dose 1.0 µg/ml, time 16-18 hrs. It counts as functional, organism-based.

Data set [15] deals with Candida albicans. Description: Synergistic antifungal activity against FLC-resistant Candida albicans ATCC 14053 cultured in spider medium assessed as inhibition of hyphal formation at 1 ug/ml measured after 4 to 8 hrs in presence of fluconazole and dibutyryl-cAMP by inverted microscopy. Particulars: dose 1.0 µg/ml, time 4-8 hrs. It counts as functional, organism-based.

Data set [16] concerns Candida albicans. The data set is described as follows: Induction of reactive oxygen species production in FLC-resistant Candida albicans ATCC 14053 at 1 ug/mL measured after 16 to 18 hrs in presence of fluconazole by DCFH-DA staining based fluorescence assay. In kind it is functional, organism-based. Conditions: dose 1.0 µg/ml, time 16-18 hrs.
The nature of data set [17]: Toxicity in Balb/c mouse assessed as weight loss at 15 mg/kg, ig measured daily for 6 days. It counts as organism-based. Conditions: in vivo, po, 144 h, time 6 day.
Data set [18] can be described thus: Toxicity in Balb/c mouse assessed as weight loss at 7.5 to 15 mg/kg, ig measured daily for 6 days in presence of fluconazole. In kind it is organism-based. Conditions: in vivo, po, 144 h, dose 7.5-15 mg/kg, time 6 day.
A short description of data set [19]: Toxicity in Balb/c mouse infected with FLC-resistant Candida albicans ATCC 14053 assessed as weight loss at 7.5 to 15 mg/kg, ig measured daily for 6 days in presence of fluconazole. In kind it is organism-based. Conditions: in vivo, po, 144 h, dose 7.5-15 mg/kg, time 6 day.
Data set [20] relates to Candida albicans. Description: In vivo antifungal activity against FLC-resistant Candida albicans ATCC 14053 infected in Balb/c mouse assessed as reduction in liver fungal load at 15 mg/kg, ig measured after 6 days. Conditions: time 6.0 day. In kind it is functional, organism-based.
Data set [21] has as its system Candida albicans. Description: In vivo antifungal activity against FLC-resistant Candida albicans ATCC 14053 infected in Balb/c mouse assessed as increase in organ coefficients of spleen at 7.5 to 15 mg/kg, ig measured after 6 days in presence of fluconazole. In kind it is functional, organism-based. Conditions: dose 7.5-15 mg/kg, time 6.0 day.
The test system of data set [22] is Candida albicans. Description: In vivo antifungal activity against FLC-resistant Candida albicans ATCC 14053 infected in Balb/c mouse assessed as reduction in severity of lesions in lungs at 15 mg/kg, ig measured after 6 days by H and E staining based histopathological analysis. It counts as functional, organism-based. Conditions: time 6.0 day.
Data set [23] deals with Candida albicans. Description: In vivo antifungal activity against FLC-resistant Candida albicans ATCC 14053 infected in Balb/c mouse assessed as reduction in severity of lesions in kidney at 15 mg/kg, ig measured after 6 days by H and E staining based histopathological analysis. It counts as functional, organism-based. Particulars: time 6.0 day.

In brackets after ≈: the same amount, converted by molar mass. Activity calls are given as the source filed them. No cut-off for these calls is given here. A value given as a limit tells only on which side of the number the result lay.

This note sets out measurements from ChEMBL document CHEMBL5625249, “Optimization and antifungal activity of quinoline derivatives linked to chalcone moiety combined with FLC against Candida albicans” (Eur J Med Chem, 2023).

A word on the MIC80: it is an inhibitory concentration at the 80% level, which refers to growth in some studies and to a panel of isolates in others.

On to `CN1CCN(c2nc3ccccc3cc2/C=C/C(=O)c2ccc(N3CCN(Cc4ccc(C(F)(F)F)cc4)CC3)cc2)CC1`, for which the MIC80 in data set [1] was 27.8 µg/mL (≈ 46.3 µM); in data set [2] it was 1.2 µg/mL; in [4] it was above 40 µg/mL; in data set [5], above 40 µg/mL; in data set [6], above 40 µg/mL; in data set [7] it was above 40 µg/mL. In addition, the MIC80 in data set [8] is above 40 µg/mL; in [9], 1.2 µg/mL; in data set [10], 0.91 µg/mL. The “fractional inhibitory concentration index (FICI)” value is reported as 0.21 in data set [3] and 0.15 in [11]. In addition, the inhibition result in data set [12], in data set [13] and in data set [14] was “Active” in each case. Besides, the inhibition entry in data set [15] is “inactive”. Moreover, the result in data set [16] and in data set [21] was Active. Further, the Activity result in [17], in [18] and in data set [19] was “Non-Toxic” each time. For the same compound, the result in [20], in data set [22] and in [23] was inactive.
